The results in this text go back to patent US20070049593A1 (priority 2004, published 2007).

By pIC50 is commonly meant the IC50 on a negative log10 scale, so that one unit is a factor of ten. Lower therefore signals a large IC50.

pIC50: −log10 of the molar value. Structures can show the parent of a compound that is named as a salt.

The target of this assay is T1, HCV polymerase (Hepatitis C virus genotype 1b, UniProt P26663).
T1 construct: a region encoding NS5B (J Virol 1991 March, 65(3), 1105-13, 544 amino acids after deletion of 47 amino acids on the C-terminal); 6xHis (C); made in house; host or cells: Escherichia coli
T1 sequence (P26663 2420-2963): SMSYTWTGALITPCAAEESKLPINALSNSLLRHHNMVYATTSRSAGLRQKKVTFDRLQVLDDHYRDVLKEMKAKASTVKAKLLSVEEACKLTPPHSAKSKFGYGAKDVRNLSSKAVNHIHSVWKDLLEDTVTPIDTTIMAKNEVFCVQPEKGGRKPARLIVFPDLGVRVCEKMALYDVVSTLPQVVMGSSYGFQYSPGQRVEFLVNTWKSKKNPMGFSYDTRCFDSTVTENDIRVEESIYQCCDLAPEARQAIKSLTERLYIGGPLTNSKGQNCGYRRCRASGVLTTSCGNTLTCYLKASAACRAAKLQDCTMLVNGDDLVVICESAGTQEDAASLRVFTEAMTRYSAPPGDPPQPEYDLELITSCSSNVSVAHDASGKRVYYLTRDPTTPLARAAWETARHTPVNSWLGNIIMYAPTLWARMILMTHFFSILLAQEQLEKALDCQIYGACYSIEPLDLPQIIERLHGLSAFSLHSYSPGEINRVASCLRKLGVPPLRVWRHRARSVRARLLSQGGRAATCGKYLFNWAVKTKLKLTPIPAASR
Kind of assay: biochemical. On the set-up: species or system HCV BK strain. The method in brief:
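His-tagged NS5B (BK strain, 47-aa C-terminal deletion, E. coli-expressed) at 0.5 μg/ml copied 5 μg/ml run-off RNA bearing the HCV 3′ UTR with 2 μM UTP plus [3H]UTP, 50 μM ATP/GTP, in pH 7.5 Tris with 5 mM MgCl2, 25 °C, 90 min. TCA-precipitated RNA was counted and IC50 calculated.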
`O=C(O)c1ccc2c(C3CCCCC3)c3n(c2c1)CCOc1cc(OCc2ccccc2N2CCOCC2)ccc1-3` [Example 2-14, 12-cyclohexyl-3-[2-(morpholin-4-yl)benzyloxy]-6,7-dihydro-5-oxa-7a-azadibenzo[a,e]azulene-9-carboxylic acid monohydrochloride]: the pIC50 is more than 7.00.

Turning to `CC(=O)Nc1ccc(N2CCOCC2)c(COc2ccc3c(c2)OCCn2c-3c(C3CCCCC3)c3ccc(C(=O)O)cc32)c1` [Example 2-15, 3-[5-acetylamino-2-(morpholin-4-yl)benzyloxy]-12-cyclohexyl-6,7-dihydro-5-oxa-7a-azadibenzo[a,e]azulene-9-carboxylic acid monohydrochloride], the pIC50 was more than 7.00.

For the compound `CN(C)CC(=O)Nc1ccc(N2CCOCC2)c(COc2ccc3c(c2)OCCn2c-3c(C3CCCCC3)c3ccc(C(=O)O)cc32)c1` [Example 2-16, 12-cyclohexyl-3-[5-(2-dimethylaminoacetylamino)-2-(morpholin-4-yl)benzyloxy]-6,7-dihydro-5-oxa-7a-azadibenzo[a,e]azulene-9-carboxylic acid dihydrochloride], the pIC50 is more than 7.00.

In turn, `CS(=O)(=O)Nc1ccc(N2CCOCC2)c(COc2ccc3c(c2)OCCn2c-3c(C3CCCCC3)c3ccc(C(=O)O)cc32)c1` [Example 2-17, 12-cyclohexyl-3-[5-methanesulfonylamino-2-(morpholin-4-yl)benzyloxy]-6,7-dihydro-5-oxa-7a-azadibenzo[a,e]azulene-9-carboxylic acid monohydrochloride] showed a pIC50 of more than 7.00.

As to `CC(=O)N(C)c1ccc(N2CCOCC2)c(COc2ccc3c(c2)OCCn2c-3c(C3CCCCC3)c3ccc(C(=O)O)cc32)c1` [Example 2-18, 3-[5-(N-acetyl-N-methylamino)-2-(morpholin-4-yl)benzyloxy]-12-cyclohexyl-6,7-dihydro-5-oxa-7a-azadibenzo[a,e]azulene-9-carboxylic acid monohydrochloride], the pIC50 was more than 7.00.

Take `CN(c1ccc(N2CCOCC2)c(COc2ccc3c(c2)OCCn2c-3c(C3CCCCC3)c3ccc(C(=O)O)cc32)c1)S(C)(=O)=O` [Example 2-19, 12-cyclohexyl-3-[5-(N-methanesulfonyl-N-methylamino)-2-(morpholin-4-yl)benzyloxy]-6,7-dihydro-5-oxa-7a-azadibenzo[a,e]azulene-9-carboxylic acid monohydrochloride]: the pIC50 is more than 7.00.

For the compound `O=C(O)c1ccc2c(C3CCCCC3)c3n(c2c1)CCOc1cc(Oc2ccccc2)ccc1-3` [Example 2-20, 12-cyclohexyl-3-phenoxy-6,7-dihydro-5-oxa-7a-azadibenzo[a,e]azulene-9-carboxylic acid], the pIC50 was more than 7.00.

`O=C(CN1CCOCC1)Nc1ccc(N2CCOCC2)c(COc2ccc3c(c2)OCCn2c-3c(C3CCCCC3)c3ccc(C(=O)O)cc32)c1` [Example 2-21, 12-cyclohexyl-3-{2-(morpholin-4-yl)-5-[2-(morpholin-4-yl)acetylamino]benzyloxy}-6,7-dihydro-5-oxa-7a-azadibenzo[a,e]azulene-9-carboxylic acid dihydrochloride] showed a pIC50 of more than 7.00.

As for `CN(C(=O)CN1CCOCC1)c1ccc(N2CCOCC2)c(COc2ccc3c(c2)OCCn2c-3c(C3CCCCC3)c3ccc(C(=O)O)cc32)c1` [Example 2-22, 12-cyclohexyl-3-[5-{N-methyl-N-[2-(morpholin-4-yl)acetyl]amino}-2-(morpholin-4-yl)benzyloxy]-6,7-dihydro-5-oxa-7a-azadibenzo[a,e]azulene-9-carboxylic acid dihydrochloride], the pIC50 is more than 7.00.

Take `CN(C)CC(=O)N(C)c1ccc(N2CCOCC2)c(COc2ccc3c(c2)OCCn2c-3c(C3CCCCC3)c3ccc(C(=O)O)cc32)c1` [Example 2-23, 12-cyclohexyl-3-(5-[N-(2-dimethylaminoacetyl)-N-methylamino]-2-(morpholin-4-yl)benzyloxy]-6,7-dihydro-5-oxa-7a-azadibenzo[a,e]azulene-9-carboxylic acid dihydrochloride]: the pIC50 was more than 7.00.

`COC(=O)N1CCCC(Oc2ccc3c(c2)OCCn2c-3c(C3CCCCC3)c3ccc(C(=O)O)cc32)C1` (stereo not drawn) [Example 2-24, 12-cyclohexyl-3-(1-methoxycarbonylpiperidin-3-yloxy)-6,7-dihydro-5-oxa-7a-azadibenzo[a,e]azulene-9-carboxylic acid] showed a pIC50 of more than 7.00.

The compound `COc1ccc(Oc2ccc3c(c2)OCCn2c-3c(C3CCCCC3)c3ccc(C(=O)O)cc32)cc1` [Example 2-25, 12-cyclohexyl-3-(4-methoxyphenoxy)-6,7-dihydro-5-oxa-7a-azadibenzo[a,e]azulene-9-carboxylic acid] had a pIC50 of more than 7.00.

As for `O=C(O)c1ccc2c(C3CCCCC3)c3n(c2c1)CCOc1cc(Oc2cccc(Cl)c2)ccc1-3` [Example 2-26, 3-(3-chlorophenoxy)-12-cyclohexyl-6,7-dihydro-5-oxa-7a-azadibenzo[a,e]azulene-9-carboxylic acid], the pIC50 was more than 7.00.

As to `CN(C)C(=O)CN1CCN(c2ccc(N3CCCC3=O)cc2COc2ccc3c(c2)OCCn2c-3c(C3CCCCC3)c3ccc(C(=O)O)cc32)CC1` [Example 2-27, 12-cyclohexyl-3-[2-(4-dimethylcarbamoylmethylpiperazin-1-yl)-5-(2-oxopyrrolidin-1-yl)benzyloxy]-6,7-dihydro-5-oxa-7a-azadibenzo[a,e]azulene-9-carboxylic acid dihydrochloride], the pIC50 is more than 7.00.

The compound `CCN1CCN(c2ccc(N3CCCC3=O)cc2COc2ccc3c(c2)OCCn2c-3c(C3CCCCC3)c3ccc(C(=O)O)cc32)CC1` [Example 2-28, 12-cyclohexyl-3-[2-(4-ethylpiperazin-1-yl)-5-(2-oxopyrrolidin-1-yl)benzyloxy]-6,7-dihydro-5-oxa-7a-azadibenzo[a,e]azulene-9-carboxylic acid dihydrochloride] gave a pIC50 of more than 7.00.

Turning to `O=C(O)c1ccc2c(C3CCCCC3)c3n(c2c1)CCOc1cc(Oc2cccnc2)ccc1-3` [Example 2-29, 12-cyclohexyl-3-(pyridin-3-yloxy)-6,7-dihydro-5-oxa-7a-azadibenzo[a,e]azulene-9-carboxylic acid monohydrochloride], the pIC50 was more than 7.00.

For `O=C(O)c1ccc2c(C3CCCCC3)c3n(c2c1)CCOc1cc(Oc2ccccc2Cl)ccc1-3` [Example 2-30, 3-(2-chlorophenoxy)-12-cyclohexyl-6,7-dihydro-5-oxa-7a-azadibenzo[a,e]azulene-9-carboxylic acid], the pIC50 is more than 7.00.

`O=C(O)c1ccc2c(C3CCCCC3)c3n(c2c1)CCOc1cc(Oc2ccc(Cl)cc2)ccc1-3` [Example 2-31, 3-(4-chlorophenoxy)-12-cyclohexyl-6,7-dihydro-5-oxa-7a-azadibenzo[a,e]azulene-9-carboxylic acid]: the pIC50 was more than 7.00.

In turn, `Cc1cc(COc2ccc3c(c2)OCCn2c-3c(C3CCCCC3)c3ccc(C(=O)O)cc32)no1` [Example 2-32, 12-cyclohexyl-3-(5-methylisoxazol-3-ylmethoxy)-6,7-dihydro-5-oxa-7a-azadibenzo[a,e]azulene-9-carboxylic acid] showed a pIC50 of more than 7.00.

In the case of `CC(C)(C)OC(=O)NCCOc1ccc2c(c1)OCCn1c-2c(C2CCCCC2)c2ccc(C(=O)O)cc21` [Example 2-33, 3-[2-(tert-butoxycarbonylamino)ethoxy]-12-cyclohexyl-6,7-dihydro-5-oxa-7a-azadibenzo[a,e]azulene-9-carboxylic acid], the pIC50 is more than 7.00.

As to `Cc1nc(COc2ccc3c(c2)OCCn2c-3c(C3CCCCC3)c3ccc(C(=O)O)cc32)cs1` [Example 2-34, 12-cyclohexyl-3-(2-methylthiazol-4-ylmethoxy)-6,7-dihydro-5-oxa-7a-azadibenzo[a,e]azulene-9-carboxylic acid], the pIC50 is more than 7.00.

`CC(C)(C)OC(=O)N1CCC[C@H]1COc1ccc2c(c1)OCCn1c-2c(C2CCCCC2)c2ccc(C(=O)O)cc21` [Example 2-35, 3-[(S)-1-(tert-butoxycarbonyl)pyrrolidin-2-ylmethoxy]-12-cyclohexyl-6,7-dihydro-5-oxa-7a-azadibenzo[a,e]azulene-9-carboxylic acid] showed a pIC50 of more than 7.00.

Turning to `COC(=O)NCCOc1ccc2c(c1)OCCn1c-2c(C2CCCCC2)c2ccc(C(=O)O)cc21` [Example 2-36, 12-cyclohexyl-3-[2-(methoxycarbonylamino)ethoxy]-6,7-dihydro-5-oxa-7a-azadibenzo[a,e]azulene-9-carboxylic acid], the pIC50 is more than 7.00.

On to `COC(=O)N1CCC[C@H]1COc1ccc2c(c1)OCCn1c-2c(C2CCCCC2)c2ccc(C(=O)O)cc21` [Example 2-37, 12-cyclohexyl-3-((S)-1-methoxycarbonylpyrrolidin-2-ylmethoxy)-6,7-dihydro-5-oxa-7a-azadibenzo[a,e]azulene-9-carboxylic acid], for which the pIC50 was more than 7.00.

The compound `O=C(O)c1ccc2c(C3CCCCC3)c3n(c2c1)CCOc1cc(OCCN2CCOC2=O)ccc1-3` [Example 2-38, 12-cyclohexyl-3-[2-(2-oxooxazolidin-3-yl)ethoxy]-6,7-dihydro-5-oxa-7a-azadibenzo[a,e]azulene-9-carboxylic acid] had a pIC50 of more than 7.00.

Take `O=C(O)c1ccc2c(C3CCCCC3)c3n(c2c1)CCOc1c(OCc2ccccc2)cccc1-3` [Example 2-39, 4-benzyloxy-12-cyclohexyl-6,7-dihydro-5-oxa-7a-azadibenzo[a,e]azulene-9-carboxylic acid]: the pIC50 was more than 7.00.

Consider `CC(C)(C)OC(=O)N1CC[C@H](Oc2ccc3c(c2)OCCn2c-3c(C3CCCCC3)c3ccc(C(=O)O)cc32)C1` [Example 2-40, 3-[(S)-1-(tert-butoxycarbonyl)pyrrolidin-3-yloxy]-12-cyclohexyl-6,7-dihydro-5-oxa-7a-azadibenzo[a,e]azulene-9-carboxylic acid], for which the pIC50 was more than 7.00.
